Experimental findings from patent publication US9814732B2, “Ulipristal acetate for prevention and treatment of breast tumors” (LABORATOIRE HRA-PHARMA, priority 2012, dated 2017) are described below.

The test system of data set [1] is T-47D cells. Briefly: Apoptosis, sub-G1 quantification by flow cytometry in T-47D cells. Format: cell-based, human. Conditions: 48 h, 100 nM. The protocol:
(§1) After seeding, cells were cultured for 24 h in serum and phenol red free medium. Then treatments were carried out in a phenol red free medium containing 5% dextran-charcoal stripped serum. Cells were treated with P or DEX (100 nM), alone or in combination with UPA, RU (1 nM to 1 μM) or CDB-3877 (100 nM). Control cells were treated with ethanol, at […] 1:1000 final ethanol concentration alone as vehicle or E2 (10 nM).
(§2) After 96 h or 48 h of hormonal treatment, respectively, for HBE or MCF-7 and T-47D cells, cells were washed in PBS, matrix dissociated with accutase enzyme (PAA laboratory, Les Mureaux, France), and centrifuged 5 minutes at 1350 rpm. Cells were fixed and frozen at −20° C. in 70% ethanol. Before analysis, cells were washed in PBS and stained with 10 μg/ml propidium iodide in PBS (containing 0.835 U/ml RNase A) (Sigma, St Quentin Fallavier, France). For each sample at least 10 000 cells were counted in a BD LSR II flow cytometer (BD Biosciences, Le Pont de Claix, France). After gating out doublets and debris, cycle distribution was analyzed using the ModFit LT software (Verity Software House, USA).
In general terms: A flow cytometer gives signals particle by particle.

Data set [2] deals with PR target genes (FASN, cyclin A, BCL2, ALPL). Briefly: qRT-PCR mRNA expression of PR target genes in HBE cells. The data set is classed as cell-based, human. To be noted: P and/or UPA 100 nM, E2 10 nM. The protocol:
as §1
(§3) Total RNA was extracted using TriZOL Reagent (Invitrogen, Cergy-Pontoise, France).
(§4) 2 μg of total RNA was subjected to reverse transcription (RT) using random primers for 1 h at 37° C. 2 μl of RT product was diluted (1:10) and subjected to quantitative PCR using sequence specific primers (300 nM) and Brillant SYBR GREEN QPCR master mix (Fermentas, Saint-Rémy-lès-Chevreuse, France) on an Mx3000P apparatus (Agilent Technologies, Massy, France). Conditions were 1 cycle at 95° C. for 10 min followed by 40 cycles at 95° C. for 30 sec, 60° C. for 1 min and 72° C. for 30 sec. Gene expression values were normalized to the housekeeping gene 36B4. Time of steroid treatment was chosen to get the optimal stimulation for a given gene. ALPL and G0S8 mRNA were analyzed after 6 h of treatment. IEX-1, FASN, and BCL2 were analyzed after 24 h of treatment. Cyclin A mRNA was analyzed after 24 h for GR responses or 48 h for PR responses.
In general terms: Quantitative PCR measures a nucleic acid by following its amplification.

Data set [3] addresses T1, PR (Homo sapiens, UniProt P06401).
T1 sequence (P06401 1-933): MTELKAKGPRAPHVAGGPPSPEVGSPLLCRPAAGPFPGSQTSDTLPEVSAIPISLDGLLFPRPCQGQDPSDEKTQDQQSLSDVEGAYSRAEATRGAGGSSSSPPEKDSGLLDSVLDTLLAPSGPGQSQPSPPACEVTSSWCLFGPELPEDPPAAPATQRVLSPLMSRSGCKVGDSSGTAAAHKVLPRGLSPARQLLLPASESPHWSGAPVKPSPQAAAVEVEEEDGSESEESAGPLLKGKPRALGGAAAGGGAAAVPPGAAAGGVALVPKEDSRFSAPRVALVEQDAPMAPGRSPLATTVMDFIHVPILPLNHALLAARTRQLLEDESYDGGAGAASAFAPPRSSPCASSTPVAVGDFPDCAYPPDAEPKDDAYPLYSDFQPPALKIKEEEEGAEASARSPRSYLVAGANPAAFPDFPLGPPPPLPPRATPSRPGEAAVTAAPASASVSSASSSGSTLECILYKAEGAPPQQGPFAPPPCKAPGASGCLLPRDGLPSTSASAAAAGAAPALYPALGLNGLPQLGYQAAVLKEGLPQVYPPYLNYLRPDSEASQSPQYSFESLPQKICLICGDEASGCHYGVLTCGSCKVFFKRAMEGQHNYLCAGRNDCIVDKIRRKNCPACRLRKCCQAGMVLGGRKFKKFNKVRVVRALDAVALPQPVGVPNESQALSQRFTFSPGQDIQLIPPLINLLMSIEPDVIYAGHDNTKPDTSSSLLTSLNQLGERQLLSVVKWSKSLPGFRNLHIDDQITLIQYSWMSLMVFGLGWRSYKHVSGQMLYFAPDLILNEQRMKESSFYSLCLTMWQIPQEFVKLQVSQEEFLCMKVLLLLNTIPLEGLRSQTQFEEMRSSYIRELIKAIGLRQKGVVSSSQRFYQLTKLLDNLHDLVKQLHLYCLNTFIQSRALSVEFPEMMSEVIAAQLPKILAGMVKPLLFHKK
The data set can be described thus: MMTV-Luc reporter gene transactivation in HBE cells (MMTV-Luc alone). The data set is classed as cell-based. To be noted: P 100 nM, p<0.05. Background: In a reporter assay the amount or activity of a reporter protein is the signal.
Protocol: T-47D and MCF-7 cell lines were respectively maintained in RPMI 1640 and in DMEM medium supplemented with 10% fetal calf serum (PAA Laboratory, Les Mureaux, France). […] Normal human breast epithelial cell (HBE) primary cultures were obtained from 20 women (aged 17-50 years). […] HBE cells were maintained in HAM F10 medium (PAA Laboratory, Les Mureaux, France) containing hydrocortisone (5 ng/ml), Triiodo-L-thyronine (6.5 ng/ml), choleratoxin (10 ng/ml), transferrin (5 mg/ml), insulin (0.016 U/ml), epidermal growth factor (10 ng/ml) (Sigma, St Quentin Fallavier, France) and 5% human serum (Etablissement Français du Sang). […]
Cells were transfected with reporter gene plasmids containing glucocorticoid and progesterone responsive elements (GRE/PRE): 1) the MMTV-Luc is a Mouse Mammary Tumor Virus Long Terminal Repeat promoter containing one GRE/PRE palindrome and three GRE/PRE hemi-palindromes upstream to firefly luciferase gene in pFC31 vector, 2) the GRELuc contains six copies of GRE/PRE palindrome upstream to firefly luciferase gene in pBL vector. […] At the end of the experiment, cells were lysed and luciferase activity was determined using the Luciferase Assay System (Promega, Charbonnières-les-bains, France). Beta galactosidase activity was assessed using the Galacto Star kit (Applied Biosystems, Courtaboeuf, France) to normalize luciferase activity data.

Data set [4] relates to HBE cells. The data set can be described thus: Tritiated thymidine incorporation (proliferation) in HBE cells. The data set is classed as cell-based, human. To be noted: 96 h, 100 nM. As for the experimental part: as §1
(§5) After 24 h of hormonal treatment, cells were incubated with [methyl-1 3H] thymidine (Perkin Elmer, Courtaboeuf, France) for 48 h or 20 h for KBE or cancer cells, respectively at 37° C. After incubation cells were washed twice with PBS 1× and once with 5% trichloroacetic acid (TCA). Cells were incubated in 5% TCA for 15 min at 4° C. and lysed in NaOH 0.1 N for 30 min at 37° C. The total cell lysate was added to 5 ml of Ecolite scintillation liquid (MP biomedical, Illkirch, France) and radioactivity was counted with a β-counter HIDEX 300SL (ScienceTec, Courtaboeuf, France).

The test system of data set [5] is PR target genes (FASN, cyclin A, BCL2, ALPL). Briefly: qRT-PCR mRNA expression of PR target genes in T-47D cells. To be noted: P and/or UPA 100 nM. Format: cell-based, human. The protocol: as §1, §3, §4
Data set [6] has as its system T-47D cells. Briefly: Tritiated thymidine incorporation (proliferation) in T-47D cells. Format: cell-based, human. To be noted: 48 h, 100 nM. As for the experimental part:
as §1, §5

Data set [7] is described as follows: Hormone concentrations in serum of pellet-treated athymic mice. To be noted: female, NMRI nu/nu athymic, mouse, other: steroid pellets grafted onto the neck, 20 mg pellet (P from day 14, UPA from day 1), day 28, read-out: concentration in mice serum (mean±SEM). Format: in vivo. The protocol: Four weeks old ovariectomized female NMRInu/nu 20 athymic mice were purchased from Janvier laboratory (Le Genest Saint Isle, France). Breast tissues samples were obtained from 6 women (aged 29-42 years). Human mammary gland tissue was cut into 2×2×2 mm fragments and 4 fragments were then subcutaneously xenografted onto the back of 4 mice per group. Four treatment groups were performed: control, E2, E2+P and E2+P+UPA. Treatments were administered by grafting steroid pellets onto the neck of each mouse. The experimental conditions were initially determined by using a dose range of hormones mixed with cholesterol into the pellets. Blood sample assays were performed after 2 weeks and 4 weeks of treatment to measure plasmatic hormonal concentrations. Finally, the dose of 0.3 mg for E2 and 20 mg for P and UPA were used, as it provides the expected blood concentrations. For the control groups, pellets containing only cholesterol were used. To reproduce menstrual cycle conditions, mice were grafted on the first day of experiment with cholesterol, E2 and/or UPA containing pellets and on the fourteen day with cholesterol or progesterone containing pellets in control and E2 groups, or in E+P and E2+P+UPA groups, respectively. Twenty eight days after the start of experiment, mice were sacrificed. Blood was collected for each mouse, and serum was frozen at −20° C. until hormone concentrations
Estradiol was measured by radioimmunoassay using Clinical Assays Estradiol-2 (Sorin Biomedica Diagnostics SpA, Saluggia, Italia). Progesterone levels were evaluated by UPLC-MSMS using Acquity UPLC and Quattro Premier XE (Waters, Milford Mass., USA).
UPA concentrations were measured using LC-MS/MS technique by MPI Research (State College, Pa., USA).

The subject of data set [8] is HBE cells. Briefly: Apoptosis, sub-G1 quantification by flow cytometry in HBE cells. Format: cell-based, human. To be noted: 96 h, 100 nM. As for the experimental part:
as §1, §2

Take `CC(=O)[C@H]1CC[C@H]2[C@@H]3CCC4=CC(=O)CC[C@]4(C)[C@H]3CC[C@]12C` [P, progesterone]: the “cell apoptosis (sub-G1 percentage), compound alone” value in data set [1] is “increased the percentage of sub-G1 cells”; in data set [8], “intense pro-apoptotic effect”. The “BCL2 mRNA expression (PR response)” value in data set [2] (24 h) is “decrease of BCL2 mRNA expression by P”; in data set [5] (24 h, p<0.01), “decrease of BCL2 mRNA expression by P”. Further, the “FASN mRNA expression” value in data set [2] (24 h) and in data set [5] (24 h) was “induction of FASN mRNA expression” in each case. In addition, the “cyclin A mRNA expression (PR response)” value in data set [2] (48 h) and in data set [5] (48 h) was “down regulated cyclin A mRNA expression” each time. In addition, in data set [3], the “luciferase expression (MMTV-Luc)” value is given as 1.38±0.11 control fold induction. For the same molecule, the “cell proliferation ([3H] thymidine incorporation), compound alone” value in data set [4] was “anti-proliferative effect”; in data set [6], “anti-proliferative activity”. In addition, the “ALPL mRNA expression” value in data set [5] (6 h) was “strong P mediated induction of ALPL transcript”. Also, the concentration at 28 days in data set [7] worked out at 13.1 ± 1.14 ng/mL.
